Assays:
[1] = system: adult cardiac myofibroblasts; test: Collagen I/III and TGF-β1 expression by real-time RT-PCR in treated cardiac myofibroblasts; assay type: cell-based, mice; conditions: for decrease in TGF-β1 levels / decrease in collagen I expression / decrease in collagen III expression: 10 ng/ml EGF, 24 hours
Procedure: (§1) Cardiac myofibroblast cultures were prepared from ventricles of WT and TIMP-3^−/− mice as previously described. Briefly, hearts were aseptically isolated from adult mice. The ventricles were minced and digested with collagenase and disapase. Fibroblasts subcultured for 2 generations were seeded on culture plates and used for all in vitro experiments. After 2 passages virtually all fibroblasts differentiate into myofibroblasts. Purity of myofibroblasts was verified by FSP-1 and α-smooth muscle actin double staining. Cell proliferation was assessed by Ki67 and FSP-1 double staining.
(§2) To determine the effect of EGF and TGF-β1 on collagen expression and synthesis, adult cardiac myofibroblasts subcultured for 2 generations were placed in low serum (5% FBS) for 24 hours and subsequently treated with either recombinant mouse EGF (rEGF, R&D […], CA) in DMEM containing 5% FBS and cultured for another 24 hours or with TGF-β1 (Millipore, Mass.) and cultured for another 48 hours. Cells were then harvested and experiments were conducted.
Total RNA was extracted from adult cultured myofibroblasts as well as LV tissue of WT and TIMP-3^−/− sham and the infarct region of MI mice 5 days post-surgery using Trizol as previously described. cDNA was synthesized using M-MLV reverse transcriptase (Invitrogen, ON). Real-time PCR was conducted using SYBR Green PCR Master Mix as per manufacturer's instructions (Applied Biological Materials, BC). 28S rRNA (house keeping gene) was used as a loading control since previous studies have shown that it is a reliable loading control especially for use in experiments with hypoxia and MI [13].

[2] = system: adult cardiac myofibroblasts; test: Collagen I synthesis by PINP ELISA in conditioned media of treated cardiac myofibroblasts; assay type: cell-based, mice; conditions: for decrease in collagen I synthesis: 10 ng/ml EGF, 24 hours
Procedure: as §1, §2
Collagen I synthesis was assessed in the LV myocardium and in conditioned media collected for cultured myofibroblasts using a rat/mouse procollagen I N-terminal peptide (PINP) ELISA kit (IDS-Medicorp, Quebec) according to the manufacturer's instructions. The LV tissues of sham mice and the infarct regions of WT and TIMP-3^−/− mice 5 days post-MI were homogenized in PBS and centrifuged. The supernatant was then collected and protein concentrations were measured. For tissues, 25 μg of total protein was used, while for media, 10 μL of conditioned media was used in the assay. Measurements of absorbances were made using SpectraMax M5 microplate reader at a wavelength of 450 nm. Values are expressed as either ng collagen per mg myocardial tissue or ng/ml conditioned media.

[3] = 10 ng/ml TGF-β1 (high concentration), 48 hours, P<0.01

Substance	effect on collagen I or III expression ([1]; 1 ng/ml EGF (low concentration))	decrease in TGF-β1 levels ([1]; TIMP-3−/− myofibroblasts)	decrease in collagen I expression ([1]; TIMP-3−/− myofibroblasts)	decrease in collagen III expression ([1]; TIMP-3−/− myofibroblasts)	decrease in TGF-β1 levels ([1]; WT myofibroblasts)	decrease in collagen I expression ([1]; WT myofibroblasts)	decrease in collagen III expression ([1]; WT myofibroblasts)	decrease in collagen I synthesis ([2]; TIMP-3−/− myofibroblasts)	decrease in collagen I synthesis ([2]; WT myofibroblasts)	collagen I and III expression ([1]; 1 ng/ml TGF-β1 (low concentration), 48 hours, P<0.05)	collagen I expression [1, 3]	effect on collagen III compared to controls ([1]; 10 ng/ml TGF-β1 (high concentration), 48 hours, P=n.s.)	collagen I synthesis [2, 3]
EGF: recombinant mouse epidermal growth factor (rEGF) used to treat cardiac myofibroblasts	little effect	43%	47%	51%	22%	38%	41%	39%	28%	–	–	–	–
TGF-β1: human recombinant transforming growth factor-beta 1 (Millipore) used to treat cardiac myofibroblasts	–	–	–	–	–	–	–	–	–	significant increase	further increase	no effect	further increase

From patent US9861694B2, “EGFR antagonist for the treatment of heart disease” (priority 2010, dated 2018)
